# From US20050234046A1 (Kalypsys, Inc., priority 2004, published 2005)
# Legend:
# Assay in all cases: Transient transfection (transactivation) assay in CV-1 cells, GAL4-PPAR chimera, luciferase reporter
# Format in all cases: cell-based
# PPAR gamma = molecular target: T1, PPAR gamma (Homo sapiens, UniProt P37231)
# T1 construct: expressed in transfected cells; host or cells: CV-1 cells
# T1 sequence (P37231 238-503 limits assumed): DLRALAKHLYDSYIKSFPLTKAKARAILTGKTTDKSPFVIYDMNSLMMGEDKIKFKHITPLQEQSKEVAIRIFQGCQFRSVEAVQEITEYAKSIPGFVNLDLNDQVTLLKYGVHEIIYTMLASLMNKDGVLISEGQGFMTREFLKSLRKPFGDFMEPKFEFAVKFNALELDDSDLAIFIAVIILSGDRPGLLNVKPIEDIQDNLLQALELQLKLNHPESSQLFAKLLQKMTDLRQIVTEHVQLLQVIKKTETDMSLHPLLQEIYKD
# PPAR alpha = molecular target: T2, PPAR alpha (Homo sapiens, UniProt Q07869)
# T2 construct: expressed in transfected cells; host or cells: CV-1 cells
# T2 sequence (Q07869 239-466 limits assumed): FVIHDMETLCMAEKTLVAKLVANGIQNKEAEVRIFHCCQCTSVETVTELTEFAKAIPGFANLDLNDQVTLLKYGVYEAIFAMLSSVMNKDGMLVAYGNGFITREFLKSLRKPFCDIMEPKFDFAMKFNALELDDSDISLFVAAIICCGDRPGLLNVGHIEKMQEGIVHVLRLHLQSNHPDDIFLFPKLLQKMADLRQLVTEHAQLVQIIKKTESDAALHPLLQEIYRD
# Excerpt: Compounds may be screened for functional potency in transient transfection assays in CV-1 cells or other cell types for their ability to activate the PPAR subtypes (transactivation assay). A previously established chimeric receptor system was utilized to allow comparison of the relative transcriptional activity of the receptor subtypes on the same synthetic response element and to prevent endogenous receptor activation from complicating the interpretation of results. See, for example; Lehmann, J. M.; Moore, L. B.; Smith-Oliver, T. A; Wilkinson, W. O.; Willson, T. M.; Kliewer, S. A., An antidiabetic thiazolidinedione is a high affinity ligand for peroxisome proliferatur-activated receptor γ (PPARγ), J. Biol. Chem., 1995, 270, 12953-6. The ligand binding domains for murine and human PPAR-alpha, PPAR-gamma, and PPAR-delta are each fused to the yeast transcription factor GAL4 DNA binding domain. CV-1 cells were transiently transfected with expression vectors for the respective PPAR chimera along with a reporter construct containing four or five copies of the GAL4 DNA binding site driving expression of luciferase. After 8-16 h, the cells are replated into multi-well assay plates and the media is exchanged to phenol-red free DME medium supplemented with 5% delipidated calf serum. 4 hours after replating, cells were treated with either compounds or 1% DMSO for 20-24 hours. Luciferase activity was then assayed with Britelite (Perkin Elmer) following the manufacturer's protocol and measured with either the Perkin Elmer Viewlux or Molecular Devices Acquest Xsee, for example, Kliewer, S. A., et. al. Cell 1995, 83, 813-819). Rosiglitazone is used as a positive control in the hPPAR-γ assay. Wy-14643 and GW7647 is used as a positive control in the hPPAR-α assay. GW501516 is used as the positive control in the hPPAR-δ assay.
# Compounds of Examples 1-233 were assayed to measure their biological activity with respect to their EC50 values and efficacy for modulating PPAR-alpha, PPAR-gamma, and PPAR-delta as set forth in Table 3.
# PPAR delta = molecular target: T3, PPAR delta (Homo sapiens, UniProt Q03181)
# T3 construct: expressed in transfected cells; host or cells: CV-1 cells
# T3 sequence (Q03181 211-439 limits assumed): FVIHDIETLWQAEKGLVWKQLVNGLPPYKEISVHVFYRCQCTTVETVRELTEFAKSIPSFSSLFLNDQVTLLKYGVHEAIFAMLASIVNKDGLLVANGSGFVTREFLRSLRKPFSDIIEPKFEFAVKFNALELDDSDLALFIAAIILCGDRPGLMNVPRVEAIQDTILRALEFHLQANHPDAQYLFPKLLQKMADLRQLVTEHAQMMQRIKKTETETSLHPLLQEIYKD
Compound,EC50 (PPAR gamma),EC50 (PPAR alpha),EC50 (PPAR delta)
"Cc1cc(CC(=O)O)cc(S(=O)(=O)N2CCN(c3ccc(C(F)(F)F)cn3)[C@@H](C)[C@H]2C)c1 (mixture of isomers) [Example 106, RS and SR-{3-[2,3-Dimethyl-4-(5-trifluoromethyl-pyridin-2-yl)-piperazine-1-sulfonyl]-5-methyl-phenyl}-acetic acid]",> 100 µM,> 100 µM,< 5 µM
Cc1ccc(CC(=O)O)cc1S(=O)(=O)N1CCC(c2ccc(Cl)cc2)CC1 [Example 1],> 100 µM,> 100 µM,< 5 µM
"Cc1ccc(S(=O)(=O)N2CCC(c3ccc(Cl)cc3)CC2)cc1CC(=O)O [Example 2, {5-[4-(4-Chlorophenyl)-piperidine-1-sulfonyl]-2-methyl-phenyl}-acetic acid]",> 100 µM,> 100 µM,5 to 100 µM
"O=C(O)Cc1cccc(S(=O)(=O)N2CCN(c3ccc(C(F)(F)F)cc3)CC2)c1 [Example 3, {3-[4-(4-Trifluoromethyl-phenyl)-piperazine-1-sulfonyl]-phenyl}-acetic acid]",5 to 100 µM,5 to 100 µM,< 5 µM
"O=C(O)Cc1cccc(S(=O)(=O)N2CCN(c3ccc(C(F)(F)F)cn3)CC2)c1 [Example 4, {3-[4-(5-Trifluoromethyl-pyridin-2-yl)-piperazine-1-sulfonyl]-phenyl}-acetic acid]",5 to 100 µM,5 to 100 µM,< 5 µM
"Cc1ccc(S(=O)(=O)N2CCCN(c3ccc(C(F)(F)F)cc3)CC2)cc1CC(=O)O [Example 5, {2-Methyl-5-[4-(4-trifluoromethyl-phenyl)-[1,4]diazepane-1-sulfonyl]-phenyl}-acetic acid]",5 to 100 µM,> 100 µM,< 5 µM
Cc1ccc(S(=O)(=O)N2CCCN(c3ncc(C(F)(F)F)cc3Cl)CC2)cc1CC(=O)O [Example 9],< 5 µM,< 5 µM,< 5 µM
"Cc1ccc(S(=O)(=O)N2C[C@@H]3C[C@H]2CN3c2cccc(F)c2)cc1CC(=O)O [Example 10, S,S-{5-[4-(3-Fluorophenyl)-2,5-diaza-bicyclo[2.2.1]heptane-1-sulfonyl]-2-methyl-phenyl}acetic acid]",> 100 µM,> 100 µM,5 to 100 µM
Cc1ccc(S(=O)(=O)N2C[C@@H]3C[C@H]2CN3c2ccc(F)cc2)cc1CC(=O)O [Example 11],> 100 µM,> 100 µM,5 to 100 µM
"Cc1ccc(S(=O)(=O)N2CCCN(c3ncccc3C(F)(F)F)CC2)cc1CC(=O)O [Example 12, {2-Methyl-5-[4-(3-trifluoromethyl-pyridin-2-yl)-[1,4]diazepane-1-sulfonyl]-phenyl}-acetic acid]",5 to 100 µM,> 100 µM,5 to 100 µM
Cc1ccc(S(=O)(=O)N2CCCN(c3ccncc3)CC2)cc1CC(=O)O [Example 13],> 100 µM,> 100 µM,5 to 100 µM
"Cc1ccc(S(=O)(=O)N2CCCC(c3cccc(C(F)(F)F)c3)C2)cc1CC(=O)O (stereo not drawn) [Example 16, {2-Methyl-5-[3-(3-trifluoromethyl-phenyl)-piperidine-1-sulfonyl]-phenyl}-acetic acid]",< 5 µM,> 100 µM,5 to 100 µM
"Cc1ccc(S(=O)(=O)N2CCN(c3nc4ccccc4o3)CC2)cc1CC(=O)O [Example 17, [5-(4-Benzoxazol-2-yl-piperazine-1-sulfonyl)-2-methyl-phenyl]-acetic acid]",5 to 100 µM,5 to 100 µM,< 5 µM
"Cc1ccc(S(=O)(=O)N2CCN(c3nc4ccccc4s3)CC2)cc1CC(=O)O [Example 18, [5-(4-Benzothiazol-2-yl-piperazine-1-sulfonyl)-2-methyl-phenyl]-acetic acid]",< 5 µM,< 5 µM,< 5 µM
"Cc1cc(CC(=O)O)cc(S(=O)(=O)N2CCN(c3ncc(C(F)(F)F)cc3Cl)CC2)c1 [Example 22, {5-Methyl-3-[4-(3-chloro-5-trifluoromethyl-pyridin-2-yl)-piperazine-1-sulfonyl]-phenyl)-acetic acid]",< 5 µM,5 to 100 µM,< 5 µM

# The remaining lines, values ahead:
EC50 (PPAR gamma),EC50 (PPAR alpha),EC50 (PPAR delta),Compound
5 to 100 µM,> 100 µM,< 5 µM,"Cc1ccc(S(=O)(=O)N2C[C@H](C)N(c3ccc(C(F)(F)F)cn3)C[C@H]2C)cc1CC(=O)O (mixture of isomers) [Example 21, SR and RS-{5-[2,5-Dimethyl-4-(5-trifluoromethyl-pyridin-2-yl)-piperazine-1-sulfonyl]-2-methyl-phenyl}-acetic acid]"
< 5 µM,5 to 100 µM,< 5 µM,"Cc1ccc(S(=O)(=O)N2CCN(c3ccc(C(F)(F)F)cn3)[C@@H](C)[C@H]2C)cc1CC(=O)O (mixture of isomers) [Example 104, RS and SR-{5-[2,3-Dimethyl-4-(5-trifluoromethyl-pyridin-2-yl)-piperazine-1-sulfonyl]-2-methyl-phenyl}-acetic acid]"
< 5 µM,> 100 µM,< 5 µM,"C[C@@H]1[C@H](C)N(c2ccc(C(F)(F)F)cn2)CCN1S(=O)(=O)c1cccc(CC(=O)O)c1 (racemic) [Example 105, RS and SR-{3-[2,3-Dimethyl-4-(S-trifluoromethyl-pyridin-2-yl)-piperazine-1-sulfonyl]-phenyl}-acetic acid]"
< 5 µM,5 to 100 µM,< 5 µM,"Cc1ccc(S(=O)(=O)N2CCN(c3ccc(C(F)(F)F)cn3)[C@H](C)C2)cc1CC(=O)O (single isomer, unassigned) [Example 69]"
5 to 100 µM,5 to 100 µM,< 5 µM,"Cc1ccc(S(=O)(=O)N2CCN(c3ccc(C(F)(F)F)cn3)CC2C(C)C)cc1CC(=O)O (stereo not drawn) [Example 6, {5-[2-Isopropyl-4-(5-trifluoromethyl-pyridin-2-yl)-piperazine-1-sulfonyl]-2-methyl-phenyl}-acetic acid]"
5 to 100 µM,5 to 100 µM,< 5 µM,"CCC1CN(c2ccc(C(F)(F)F)cn2)CCN1S(=O)(=O)c1ccc(C)c(CC(=O)O)c1 (stereo not drawn) [Example 7, {5-[2-Ethyl-4-(5-trifluoromethyl-pyridin-2-yl)-piperazine-1-sulfonyl]-2-methyl-phenyl)-acetic acid]"
< 5 µM,5 to 100 µM,< 5 µM,"Cc1ccc(S(=O)(=O)N2CCCN(c3ccc(C(F)(F)F)cn3)CC2)cc1CC(=O)O [Example 8, {2-Methyl-5-[4-(5-trifluoromethyl-pyridin-2-yl)-[1,4]diazepane-1-sulfonyl]-phenyl}-acetic acid]"
5 to 100 µM,5 to 100 µM,< 5 µM,"Cc1ccc(S(=O)(=O)N2CCCC(c3ccc(C(F)(F)F)cc3)C2)cc1CC(=O)O (stereo not drawn) [Example 15, {2-Methyl-5-[3-(4-trifluoromethyl-phenyl)-piperidine-1-sulfonyl]-phenyl}-acetic acid]"
5 to 100 µM,5 to 100 µM,< 5 µM,Cc1ccc(S(=O)(=O)N2CCN(c3ccc(C(F)(F)F)cn3)CC2C)cc1CC(=O)O (stereo not drawn) [Example 19]
> 100 µM,> 100 µM,< 5 µM,"Cc1ccc(S(=O)(=O)N2[C@H](C)CN(c3ccc(C(F)(F)F)cn3)C[C@@H]2C)cc1CC(=O)O [Example 20, {5-[2,6-Dimethyl-4-(5-trifluoromethyl-pyridin-2-yl)-piperazine-1-sulfonyl]-2-methyl-phenyl}-acetic acid]"
